Data reported in patent US4521598A, “3-Azidocephalosporins” (priority 1983, dated 1985).
≈ marks a conversion by molar mass, not a printed value. Counter-ions that a name gives are not always drawn. Like-named read-outs stand apart in the source and are kept apart here.

Key:
[1] = system: Proteus vulgaris; test: Disc plate assay, zone of inhibition; type: cell-based
[2] = system: Escherichia coli; test: Agar dilution method, MIC; type: cell-based
[3] = system: Trichophyton mentagrophytes; test: Disc plate assay, zone of inhibition; type: cell-based
Description: (§1) The 7-acylamino-3-azido-3-cephem-4-carboxylic acids and the salts thereof inhibit the growth of bacteria pathogenic to man and animals. […] For example, 7β-(2-thienylacetamido)-3-azido-3-cephem-4-carboxylic acid inhibited the growth of various organisms as shown in the following Table 1.
(§2) ^1 concentration 1 mg./ml.
(§3) The 3-amino-2-substituted-3-cephem compounds (formula 5) as the free acids or salts thereof and the bicyclo nonenes (formula 6) as the free acids or salts thereof are antibacterial agents which inhibit the growth of bacteria pathogenic to man and animals. In Table 3 below the in vitro antibacterial properties of the three isomeric products represented by formulae 5 and 6 obtained in the disc-plate method is tabulated.

[4] = system: Candida albicans; test: Disc plate assay, zone of inhibition; type: cell-based
Description: as §1, §2, §3

[5] = system: Serratia; test: Agar dilution method, MIC; type: cell-based; conditions: strains of Serratia
[6] = system: Proteus; test: Agar dilution method, MIC; type: cell-based; conditions: strains of Proteus
[7] = system: Streptococcus sp. D; test: Agar dilution method, MIC; type: cell-based
[8] = system: Escherichia coli; test: Disc plate assay, zone of inhibition; type: cell-based; conditions: for zone of inhibition at 3000 µg/mL: read-out: Zone of Inhibition (mm. diam.)
[9] = system: Bacillus stearothyermophilus; test: Disc plate assay, zone of inhibition; type: cell-based; conditions: for zone of inhibition at 3000 µg/mL: read-out: Zone of Inhibition (mm. diam.)
[10] = system: Enterobacter cloacae; test: Agar dilution method, MIC; type: cell-based
[11] = system: Staphylococcus aureus; test: Agar dilution method, MIC; type: cell-based
[12] = system: Streptococcus pyogenes; test: Agar dilution method, MIC; type: cell-based; conditions: strain C203
[13] = system: Haemophilus influenzae; test: Agar dilution method, MIC; type: cell-based
[14] = system: Staphylococcus aureus; test: Disc plate assay, zone of inhibition; type: cell-based; conditions: for zone of inhibition at 3000 µg/mL: read-out: Zone of Inhibition (mm. diam.)
[15] = system: Pseudomonas; test: Agar dilution method, MIC; type: cell-based; conditions: strains of Pseudomonas
[16] = system: Enterobacter aerogenes; test: Agar dilution method, MIC; type: cell-based
[17] = system: Pseudomonas solanacearum; test: microbe, parasite or virus in culture; type: cell-based; conditions: Ralstonia solanacearum; for zone of inhibition at 3000 µg/mL: read-out: Zone of Inhibition (mm. diam.)
[18] = system: Streptococcus pneumoniae; test: Agar dilution method, MIC; type: cell-based; conditions: strain Park
[19] = system: Micrococcus luteus; test: Disc plate assay, zone of inhibition; type: cell-based; conditions: for zone of inhibition at 3000 µg/mL: read-out: Zone of Inhibition (mm. diam.)
[20] = system: Serratia marcescens; test: Disc plate assay, zone of inhibition; type: cell-based; conditions: concentration 1 mg./ml.
Description: as §1, §2

[21] = system: Pseudomonas aeruginosa; test: Disc plate assay, zone of inhibition; type: cell-based; conditions: concentration 1 mg./ml.
Description: as §1, §2

[22] = system: Salmonella gallinarum; test: Disc plate assay, zone of inhibition; type: cell-based; conditions: Salmonella enterica, concentration 1 mg./ml.
Description: as §1, §2

[23] = system: Saccharomyces postorianus; test: Disc plate assay, zone of inhibition; type: cell-based; conditions: concentration 1 mg./ml.
Description: as §1, §2

[24] = system: Bacillus subtilis; test: Disc plate assay, zone of inhibition; type: cell-based; conditions: for zone of inhibition at 3000 µg/mL: read-out: Zone of Inhibition (mm. diam.)
[25] = system: Klebsiella pneumoniae; test: Agar dilution method, MIC; type: cell-based
[26] = system: Salmonella typhi; test: Agar dilution method, MIC
[27] = system: Streptococcus epidermidis; test: Agar dilution method, MIC; type: cell-based

For `[N-]=[N+]=NC1=C(C(=O)O)N2C(=O)[C@@H](NC(=O)Cc3cccs3)[C@H]2SC1` [7β-(2-Thienylacetamido)-3-azido-3-cephem-4-carboxylic acid], the zone of inhibition at 1000 µg/mL ([1]; Proteus vulgaris, concentration 1 mg./ml.) was 25 mm, the MIC [2] was 128 µg/mL (≈ 350 µM) and the MIC ([2]; strain EC14, read-out: MIC) was 16 µg/mL (≈ 43.8 µM). The MIC ([2]; strain N10, read-out: MIC) was 64 µg/mL (≈ 175 µM), the “detectable zone of inhibition” value ([3]; concentration 1 mg./ml.) was “failed to produce a detectable zone of inhibition” and the “detectable zone of inhibition” value ([4]; concentration 1 mg./ml.) was “failed to produce a detectable zone of inhibition”. For the same compound, the MIC [5] was no less than 128 µg/mL, the MIC [6] was no less than 128 µg/mL and the MIC ([7]; Streptococcus, strain X66, read-out: MIC) was 128 µg/mL (≈ 350 µM). The MIC ([7]; strain 2041) was 128 µg/mL (≈ 350 µM), the zone of inhibition at 1000 µg/mL ([8]; Escherichia coli, concentration 1 mg./ml.) was 21 mm and the zone of inhibition at 1000 µg/mL ([9]; Bacillus, concentration 1 mg./ml.) was 20 mm. For the same compound, the MIC ([10]; Enterobacter cloacae, strain EB5, read-out: MIC) was 128 µg/mL (≈ 350 µM), the MIC ([10]; strain 265A) was 128 µg/mL (≈ 350 µM) and the MIC ([11]; strain S13E) was 64 µg/mL (≈ 175 µM). For the same compound, the MIC ([11]; strain V41, read-out: MIC) was 64 µg/mL (≈ 175 µM), the MIC ([11]; strain X1.1, read-out: MIC) was 8 µg/mL (≈ 21.9 µM) and the MIC ([11]; strain X400, read-out: MIC) was 128 µg/mL (≈ 350 µM). The MIC [12] was 0.5 µg/mL (≈ 1.37 µM), the MIC ([13]; strain 76) was 4 µg/mL (≈ 10.9 µM) and the MIC ([13]; strain C.L.) was 16 µg/mL (≈ 43.8 µM). It also gave a zone of inhibition at 1000 µg/mL ([14]; Staphylococcus aureus, concentration 1 mg./ml.) of 30 mm, an MIC [15] of no less than 128 µg/mL and an MIC ([16]; Klebsiella aerogenes, strain C32, read-out: MIC) of 128 µg/mL (≈ 350 µM). It also gave an MIC ([16]; strain EB17) of 128 µg/mL (≈ 350 µM), a zone of inhibition at 1000 µg/mL [17] of 29 mm and an MIC [18] of 0.25 µg/mL (≈ 0.684 µM). The zone of inhibition at 1000 µg/mL ([19]; Micrococcus luteus, concentration 1 mg./ml.) was 23 mm, the “detectable zone of inhibition” value [20] was “failed to produce a detectable zone of inhibition” and the “detectable zone of inhibition” value [21] was “failed to produce a detectable zone of inhibition”. The zone of inhibition at 1000 µg/mL [22] was 19 mm, the “detectable zone of inhibition” value [23] was “failed to produce a detectable zone of inhibition” and the zone of inhibition at 1000 µg/mL ([24]; Bacillus subtilis, concentration 1 mg./ml.) was 30 mm. The MIC [25] was 128 µg/mL (≈ 350 µM), the MIC ([25]; strain X26, read-out: MIC) was 4 µg/mL (≈ 10.9 µM) and the MIC ([25]; strain X68, read-out: MIC) was 16 µg/mL (≈ 43.8 µM). The MIC ([26]; Salmonella enterica, TYPHI) was 16 µg/mL (≈ 43.8 µM), the MIC ([26]; strain 1335) was 16 µg/mL (≈ 43.8 µM) and the MIC ([27]; strain 222) was 4 µg/mL (≈ 10.9 µM). It also gave an MIC ([27]; strain EP11) of 16 µg/mL (≈ 43.8 µM).
`COC1=N[C@@H](C(=O)[O-])N2C(=O)[C@H](NC(=O)Cc3cccs3)[C@@H]2SC1.[Na+]` [Compound A, [2R-(2α,7α,8β)],-4-Methoxy-9-oxo-8-[(2-thienylacetyl)-amino]-6-thia-1,3-diazabicyclo[5.2.0]non-3-ene-2-carboxylic acid sodium salt] was tested, and the “Zone of Inhibition (mm. diam.)” value ([3]; Concentration: 3 mg./ml.) was “tr”, the “Zone of Inhibition (mm. diam.)” value ([8]; Concentration: 3 mg./ml.) was 12 mm and the “Zone of Inhibition (mm. diam.)” value ([9]; Concentration: 3 mg./ml.) was 11 mm. The “Zone of Inhibition (mm. diam.)” value ([14]; Concentration: 3 mg./ml.) was 18 mm, the “Zone of Inhibition (mm. diam.)” value ([19]; Concentration: 3 mg./ml.) was 10 mm and the “Zone of Inhibition (mm. diam.)” value ([24]; Concentration: 3 mg./ml.) was 15 mm.
Work on `COC1=NCS[C@@H]2[C@H](NC(=O)Cc3cccs3)C(=O)N2[C@H]1C(=O)O` [Compound B, [2R-(2α,7α,8β)],-3-Methoxy-9-oxo-8-[(2-thienylacetyl)-amino]-6-thia-1,4-diaza[5.2.0]non-3-ene-2-carboxylic acid sodium salt] yielded a zone of inhibition at 3000 µg/mL ([4]; Candida albicans, Concentration: 3 mg./ml., read-out: Zone of Inhibition (mm. diam.)) of 13 mm, a zone of inhibition at 3000 µg/mL ([8]; Escherichia coli, Concentration: 3 mg./ml.) of 25 mm and a zone of inhibition at 3000 µg/mL ([9]; Bacillus, Concentration: 3 mg./ml.) of 34 mm. It also gave a zone of inhibition at 3000 µg/mL ([14]; Staphylococcus aureus, Concentration: 3 mg./ml.) of 29 mm, a zone of inhibition at 3000 µg/mL [17] of 12 mm and a zone of inhibition at 3000 µg/mL ([19]; Micrococcus luteus, Concentration: 3 mg./ml.) of 25 mm. It also gave a zone of inhibition at 3000 µg/mL ([24]; Bacillus subtilis, Concentration: 3 mg./ml.) of 27 mm.
In the case of `COC1S[C@@H]2[C@H](NC(=O)Cc3cccs3)C(=O)N2C(C(=O)[O-])=C1N.[Na+]` (stereo partly drawn) [Compound C, Sodium 7β-[(2-thienylacetyl)amino]-2-methoxy-3-amino-3-cephem-4-carboxylate], the “Zone of Inhibition (mm. diam.)” value ([1]; Concentration: 3 mg./ml.) is reported as “tr”, the zone of inhibition at 3000 µg/mL ([8]; Escherichia coli) is reported as 30 mm and the zone of inhibition at 3000 µg/mL ([9]; Bacillus) is reported as 36 mm. For the same compound, the zone of inhibition at 3000 µg/mL ([14]; Staphylococcus aureus) was 29 mm, the zone of inhibition at 3000 µg/mL [17] was 11 mm and the zone of inhibition at 3000 µg/mL ([19]; Micrococcus luteus) was 24 mm. The zone of inhibition at 3000 µg/mL ([24]; Bacillus subtilis) was 30 mm.
